How the values were obtained:
Enterococcus faecalis [1] = experiment: Ability to inhibit the decarboxylation of L-phenyl-alanine using a crude enzyme preparation of phenylalanine decarboxylase (PAD) from Streptococcus faecalis at 1.76 mM concentration
Enterococcus faecalis [2] = experiment: Ability to inhibit the decarboxylation of L-phenyl-alanine using a crude enzyme preparation of phenylalanine decarboxylase (PAD) from Streptococcus faecalis, at 1.76 mM concentration
Enterococcus faecalis [3] = experiment: ability to inhibit the decarboxylation of L-phenyl-alanine using a crude enzyme preparation of phenylalanine decarboxylase (PAD) from Streptococcus faecalis, at 1 mM concentration
Enterococcus faecalis [4] = experiment: ability to inhibit the decarboxylation of L-phenyl-alanine using a crude enzyme preparation of phenylalanine decarboxylase (PAD) from Streptococcus faecalis, at 1.76 mM concentration

NC1(C(=O)O)CC2CC[C@@H]1c1ccccc12 (stereo in doubt; 1a)
inhibition (Enterococcus faecalis [1]): 7%

NC1(C(=O)O)CC2CC[C@@H]1c1ccccc12 (stereo in doubt; 1b)
inhibition (Enterococcus faecalis [2]): 8%

N[C@@H](Cc1ccc(Cl)cc1)C(=O)O (racemic)
inhibition (Enterococcus faecalis [3]): 24%

C[C@](N)(Cc1ccc(O)c(O)c1)C(=O)O (racemic)
inhibition (Enterococcus faecalis [4]): 8%

From ChEMBL document CHEMBL1121473, “Conformationally defined aromatic amino acids. Synthesis and stereochemistry of 2-endo- and 2-exo-amino-1,2,3,4-tetrahydro-1,4-ethanonaphthalene-2-carboxylic acids (2-endo- and 2-exo-aminobenzobicycle[2.2.2]octene-2-carboxylic acids)” (J Med Chem, 1980)
